Source: patent publication US11629155B2, “Small molecule antagonist compound TAC5 series having toll-like receptor 3/7/8/9 inhibitory function” (AJOU UNIVERSITY INDUSTRY-ACADEMIC COOPERATION FOUNDATION, priority 2018, dated 2023)

Tests used:
TLR8 = target: T1, TLR8 (Homo sapiens, UniProt Q9NR97); assay: TL8, R848 or CL075-induced TNF-α or IL-6 secretion in THP1-derived macrophages; assay type: cell-based; conditions: TL8, R848 or CL075, dose-dependent manner, FIGS. 4E-4G
T1 construct: endogenous in cells; host or cells: THP1-derived macrophages (PMA-differentiated)
T1 sequence (Q9NR97 27-1041): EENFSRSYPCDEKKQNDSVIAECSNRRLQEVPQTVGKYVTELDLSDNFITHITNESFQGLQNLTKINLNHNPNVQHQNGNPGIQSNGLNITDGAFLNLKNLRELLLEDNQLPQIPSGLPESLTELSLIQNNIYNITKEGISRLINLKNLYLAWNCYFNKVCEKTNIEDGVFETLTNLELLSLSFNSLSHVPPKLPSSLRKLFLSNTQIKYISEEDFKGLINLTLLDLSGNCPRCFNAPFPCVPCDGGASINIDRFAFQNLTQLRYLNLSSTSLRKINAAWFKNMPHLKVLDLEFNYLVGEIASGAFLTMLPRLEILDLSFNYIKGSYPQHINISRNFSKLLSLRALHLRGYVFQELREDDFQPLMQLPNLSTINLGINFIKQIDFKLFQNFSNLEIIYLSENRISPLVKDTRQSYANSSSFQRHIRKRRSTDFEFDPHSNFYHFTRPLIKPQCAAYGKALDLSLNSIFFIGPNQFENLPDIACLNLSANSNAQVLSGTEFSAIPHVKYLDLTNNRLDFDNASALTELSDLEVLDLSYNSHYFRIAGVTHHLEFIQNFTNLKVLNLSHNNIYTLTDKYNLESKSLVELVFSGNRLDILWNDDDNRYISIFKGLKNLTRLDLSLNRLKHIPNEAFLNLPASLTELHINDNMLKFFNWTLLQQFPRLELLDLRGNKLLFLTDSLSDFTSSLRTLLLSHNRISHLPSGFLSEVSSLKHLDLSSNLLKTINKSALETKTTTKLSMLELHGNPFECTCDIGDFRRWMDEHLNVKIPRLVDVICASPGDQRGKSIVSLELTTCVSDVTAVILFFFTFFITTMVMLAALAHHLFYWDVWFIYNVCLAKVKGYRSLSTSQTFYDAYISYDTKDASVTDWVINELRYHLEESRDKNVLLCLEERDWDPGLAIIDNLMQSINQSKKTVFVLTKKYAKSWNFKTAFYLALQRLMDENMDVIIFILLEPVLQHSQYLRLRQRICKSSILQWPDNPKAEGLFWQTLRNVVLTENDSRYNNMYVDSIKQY

TLR7/8 = assay: TLR7/8-mediated IL-6 expression in THP-1 cells; assay type: cell-based, human; conditions: FIG. 4C
Procedure: RAW264.7 cells (ATCC, Manassas, Va., USA), which are mouse macrophages, were cultured in low-glucose DMEM (Thermo Fisher Scientific Inc.) supplemented with 10% FBS, 100 IU/ml penicillin and 100 μg/ml streptomycin in a culture system. Human monocyte THP1 cells were cultured in RPMI 1640 (Thermo Fisher Scientific Inc.) supplemented with 10% FBS, 100 IU/ml penicillin and 100 μg/ml streptomycin and then differentiation thereof into macrophages was induced using 10 nM phorbol 12-myristate 13-acetate (PMA) (Sigma-Aldrich Co. LLC.) for 24 hours. CL075, R848, CpG-ODN and Poly(I:C) were purchased from InvivoGen (San Diego, Calif., USA), and LPS was purchased from Sigma-Aldrich Co. (St. Louis, Mo., USA).
Cytotoxicity in RAW 264.7 cells was tested by treatment with these compounds at a concentration of 12.5 to 50 μM. […] The inhibitory effect of TAC5-a on TLR-mediated signaling was confirmed by measuring TNF-α secretion through ELISA in THP1-derived macrophages. […] In addition, in order to evaluate the antagonistic effect of TAC5-a on endosomal TLR activation, cells were cultured along with this compound in the presence of R848 (TLR7/8) or CL075 (TLR7/8), imiquimod (IMQ; TLR7), TL8 (TLR8), poly(I:C) (TLR3) or CpG ODN (TLR9) (FIGS. 4E, 4F and 4G).

TLR4 = target: T2, TLR4 (Homo sapiens, UniProt O00206+Q9Y6Y9); assay: LPS-induced TNF-α secretion (ELISA) in THP1-derived macrophages; assay type: cell-based; conditions: 1 to 50 μM, FIG. 4D
T2 construct: endogenous in cells; host or cells: THP1-derived macrophages (PMA-differentiated)
T2 sequence (O00206 24-839): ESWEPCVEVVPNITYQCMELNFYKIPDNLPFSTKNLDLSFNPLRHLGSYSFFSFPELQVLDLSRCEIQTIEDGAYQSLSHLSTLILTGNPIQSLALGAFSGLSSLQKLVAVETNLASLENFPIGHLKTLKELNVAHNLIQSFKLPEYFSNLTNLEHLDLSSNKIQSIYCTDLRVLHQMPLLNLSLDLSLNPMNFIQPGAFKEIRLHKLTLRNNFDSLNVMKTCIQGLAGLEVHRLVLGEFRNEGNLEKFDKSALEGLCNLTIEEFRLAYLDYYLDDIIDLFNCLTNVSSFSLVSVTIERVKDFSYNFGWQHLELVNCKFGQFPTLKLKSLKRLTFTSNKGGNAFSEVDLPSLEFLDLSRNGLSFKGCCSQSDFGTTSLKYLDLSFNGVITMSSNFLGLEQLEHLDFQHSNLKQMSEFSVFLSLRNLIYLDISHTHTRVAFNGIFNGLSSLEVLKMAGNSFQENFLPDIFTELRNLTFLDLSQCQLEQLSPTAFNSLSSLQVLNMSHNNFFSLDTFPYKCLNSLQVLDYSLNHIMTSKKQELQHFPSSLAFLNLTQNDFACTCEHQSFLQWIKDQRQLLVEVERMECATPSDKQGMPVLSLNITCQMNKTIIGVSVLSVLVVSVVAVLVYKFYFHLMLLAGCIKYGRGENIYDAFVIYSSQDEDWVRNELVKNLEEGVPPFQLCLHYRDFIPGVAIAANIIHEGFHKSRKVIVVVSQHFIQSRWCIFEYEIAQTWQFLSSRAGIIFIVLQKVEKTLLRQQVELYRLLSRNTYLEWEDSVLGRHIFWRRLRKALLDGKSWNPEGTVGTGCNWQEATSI
T2 sequence (Q9Y6Y9 17-160 limits assumed): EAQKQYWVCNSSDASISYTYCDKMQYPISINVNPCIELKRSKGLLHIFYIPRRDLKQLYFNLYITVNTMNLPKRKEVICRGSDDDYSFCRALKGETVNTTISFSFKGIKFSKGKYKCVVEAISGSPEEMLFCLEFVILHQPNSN

[1] = tested on: C57BL/6 mice, IMQ-induced psoriasis; assay: IMQ-induced psoriasis mouse model; assay type: in vivo
Procedure: The therapeutic efficacy of TAC5-a was evaluated in a psoriasis mouse model and a SLE mouse model. Psoriasis was induced in 6-7 week old C57BL/6 mice by topically applying 42 mg of IMQ cream (5%) to the shaved back skin of the mice for 6 consecutive days (FIG. 5A). TAC5-a was injected daily at doses of 50, 100 and 200 nmol/g and the effect thereof on severity was analyzed.
Histological analysis and immunochemical staining were performed on skin samples of mouse dorsal lesions. The sample was fixed with 4% paraformaldehyde solution, then embedded in paraffin and cut to 7 μm on a glass slide. The sections were stained with hematoxylin and eosin (H&E) and the thickness of the dermis and epidermis were measured. The thickness of skin was measured with a Leica DMi8 fluorescence microscope using a Leica LAS X Hardware Configurator (Leica Microsystems GmbH, Wetzlar, Germany). IMQ-mediated skin inflammation was evaluated by immunohistochemistry (IHC) using a primary antibody that recognizes CD68 (ab31630, 1:200 dilution) as a macrophage marker. […] The skin was stained with hematoxylin and eosin (H&E) in order to evaluate the thickness of the epidermis (yellow arrow) and dermis (green arrow) in IMQ-induced psoriasis mice and thereby to observe the histopathological changes of skin lesions in each group (FIG. 5G) Immunohistochemical analysis of skin lesions in each group was performed using a primary antibody that recognizes CD68.

TLR2/6 = target: T3, TLR2/6 (Homo sapiens, UniProt O60603+Q9Y2C9); assay: FSL-1-induced TNF-α secretion (ELISA) in THP1-derived macrophages; assay type: cell-based; conditions: 1 to 50 μM, FIG. 4D
T3 construct: endogenous in cells; host or cells: THP1-derived macrophages (PMA-differentiated)
T3 sequence (O60603 21-784): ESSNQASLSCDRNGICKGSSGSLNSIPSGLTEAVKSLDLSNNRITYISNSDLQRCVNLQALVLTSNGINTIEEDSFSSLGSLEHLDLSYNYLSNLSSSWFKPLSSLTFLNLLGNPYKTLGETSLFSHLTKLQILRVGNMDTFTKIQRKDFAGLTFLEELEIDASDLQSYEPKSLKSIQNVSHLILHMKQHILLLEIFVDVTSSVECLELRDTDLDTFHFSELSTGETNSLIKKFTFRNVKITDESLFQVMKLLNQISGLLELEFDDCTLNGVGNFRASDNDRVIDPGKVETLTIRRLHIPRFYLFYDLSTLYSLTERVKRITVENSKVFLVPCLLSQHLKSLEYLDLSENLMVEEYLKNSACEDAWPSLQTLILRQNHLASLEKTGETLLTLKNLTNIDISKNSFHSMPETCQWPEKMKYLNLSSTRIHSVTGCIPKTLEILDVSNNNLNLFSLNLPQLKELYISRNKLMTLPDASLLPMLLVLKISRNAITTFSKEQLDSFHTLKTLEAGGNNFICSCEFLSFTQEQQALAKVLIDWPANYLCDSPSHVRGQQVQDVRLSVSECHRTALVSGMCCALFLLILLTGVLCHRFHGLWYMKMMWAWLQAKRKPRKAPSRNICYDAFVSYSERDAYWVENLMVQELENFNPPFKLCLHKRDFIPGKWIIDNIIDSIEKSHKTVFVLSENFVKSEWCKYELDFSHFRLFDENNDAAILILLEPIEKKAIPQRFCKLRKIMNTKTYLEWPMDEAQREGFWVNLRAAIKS
T3 sequence (Q9Y2C9 32-796): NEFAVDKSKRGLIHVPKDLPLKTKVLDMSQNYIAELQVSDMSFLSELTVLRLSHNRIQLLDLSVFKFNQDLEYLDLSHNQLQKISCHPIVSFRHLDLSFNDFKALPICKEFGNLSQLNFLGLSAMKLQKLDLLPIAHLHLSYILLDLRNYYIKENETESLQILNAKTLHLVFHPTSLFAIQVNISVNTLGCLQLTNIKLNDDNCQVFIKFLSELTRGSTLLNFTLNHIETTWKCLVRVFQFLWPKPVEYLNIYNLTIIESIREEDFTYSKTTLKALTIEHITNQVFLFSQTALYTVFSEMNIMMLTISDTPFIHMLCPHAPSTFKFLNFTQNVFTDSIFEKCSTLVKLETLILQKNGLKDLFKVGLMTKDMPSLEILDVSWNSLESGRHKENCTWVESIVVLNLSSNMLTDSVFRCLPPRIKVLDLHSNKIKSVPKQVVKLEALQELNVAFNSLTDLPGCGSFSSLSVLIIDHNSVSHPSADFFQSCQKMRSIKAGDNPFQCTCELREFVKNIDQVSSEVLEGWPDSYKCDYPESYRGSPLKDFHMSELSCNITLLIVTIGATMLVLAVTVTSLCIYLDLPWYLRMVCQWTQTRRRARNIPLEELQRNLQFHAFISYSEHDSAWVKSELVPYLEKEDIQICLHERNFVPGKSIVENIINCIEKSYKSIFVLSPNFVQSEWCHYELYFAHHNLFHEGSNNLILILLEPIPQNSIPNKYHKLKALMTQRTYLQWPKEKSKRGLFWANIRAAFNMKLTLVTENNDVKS

TLR1/2 = target: T4, TLR1/2 (Homo sapiens, UniProt O60603+Q15399); assay: Pam3CSK4-induced TNF-α secretion (ELISA) in THP1-derived macrophages; assay type: cell-based; conditions: 1 to 50 μM, FIG. 4D
T4 construct: endogenous in cells; host or cells: THP1-derived macrophages (PMA-differentiated)
T4 sequence (Q15399 25-786): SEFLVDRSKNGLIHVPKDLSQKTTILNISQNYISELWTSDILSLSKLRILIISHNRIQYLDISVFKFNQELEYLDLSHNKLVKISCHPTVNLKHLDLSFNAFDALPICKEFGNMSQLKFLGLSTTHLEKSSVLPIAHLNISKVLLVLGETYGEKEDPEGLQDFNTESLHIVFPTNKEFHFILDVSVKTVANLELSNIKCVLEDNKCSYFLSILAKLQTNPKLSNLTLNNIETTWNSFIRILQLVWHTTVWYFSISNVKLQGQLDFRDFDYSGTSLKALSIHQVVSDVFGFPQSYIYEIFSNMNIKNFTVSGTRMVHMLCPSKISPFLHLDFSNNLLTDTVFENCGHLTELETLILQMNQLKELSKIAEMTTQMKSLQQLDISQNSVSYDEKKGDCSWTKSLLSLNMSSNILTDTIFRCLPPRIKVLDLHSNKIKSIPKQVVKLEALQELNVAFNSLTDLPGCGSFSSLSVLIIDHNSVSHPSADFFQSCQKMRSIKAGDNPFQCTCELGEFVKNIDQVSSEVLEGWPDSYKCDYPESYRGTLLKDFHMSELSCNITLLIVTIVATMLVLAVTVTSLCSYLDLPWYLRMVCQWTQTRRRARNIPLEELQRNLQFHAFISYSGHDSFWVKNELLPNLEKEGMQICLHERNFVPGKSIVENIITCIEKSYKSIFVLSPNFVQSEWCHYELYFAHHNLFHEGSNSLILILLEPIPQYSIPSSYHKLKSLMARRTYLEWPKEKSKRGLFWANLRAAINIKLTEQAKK
T4 sequence (O60603 21-784): as the sequence (O60603 21-784) above

With Nc1cccc(COc2cccnc2N)c1 [TAC5-a, 3-((3-aminobenzyl)oxy)pyridin-2-amine] the “TLR8-mediated TNF-α or IL-6 secretion” value (TLR8) was “significantly inhibited”, the “TLR7/8-mediated IL-6 expression” value (TLR7/8) was “inhibited” and the “TLR4 (LPS)-mediated TNF-α secretion” value (TLR4) was “did not block”. The “effect on back skin inflammation compared with methotrexate (MTX)” value ([1]; FIG. 5B) was “relatively weaker”, the spleen hypertrophy ([1]; FIG. 5D) was “adequately prevented” and the “thickness of the epidermis and the dermis (H&E)” value ([1]; FIG. 5F) was “therapeutic effects similar to those of the treatment group were observed”. The “expression of CD68 in skin lesions (immunohistochemistry)” value ([1]; FIG. 5H) was “effectively reduced”, the “PASI score (psoriasis area and severity index)” value ([1]; fourth day of treatment, decreased from 8.0 or higher, FIG. 5C) was “less than 4.0” and the “degree of inflammation in the back skin” value ([1]; injected daily at 50, 100 and 200 nmol/g, FIG. 5B) was “reversal of the degree of inflammation was evident”. The “TLR2/6 (FSL-1)-mediated TNF-α secretion” value (TLR2/6) was “did not block” and the “TLR1/2 (Pam3CSK4)-mediated TNF-α secretion” value (TLR1/2) was “did not block”.
